# Legend:
# [1] = test system: human leukemic cell line U937; experiment: Mitochondrial transmembrane potential (DiOC6(3), flow cytometry); assay type: cell-based; settings: 16 hours
# Text: Mitochondrial pathway is one of the pathways of apoptosis induction. In cells undergoing apoptosis, mitochondria were stimulated to regulate the Bcl-2 family of proteins, which made the inner and outer mitochondrial membrane unstable. Apoptigenic factors were further released to induce apoptosis. The apoptotic mechanism of dehydrosulphurenic acid in tumor cells was studied in this experiment by measuring the mitochondrial transmembrane potential.
# Dehydrosulphurenic acid in the concentration of 5 μg/ml were used to treat human leukemic cell line U937 for 16 hours; while U937 cells treated with 4 μM anti-cancer drug Camptothecin for 16 hours were served as positive control, and cells without treatment were served as negative control. These cells were washed with PBS and incubated with 40 nM 3,3′-dihexyloxacarbocyanine (DiOC6(3), Molecular Probes, Eugene, Oreg.) in the dark at 37° C. for 15 min, and were detected by flowcytometry. Excitation and emission wavelength settings of 488 nm and 530 nm were used to detect the density of green fluorescence to further estimate mitochondrial membrane potential.
# [2] = test system: apoptosis- and mitotic catastrophe-related proteins in U937 cells; experiment: Western blot analysis of apoptosis-related proteins; assay type: cell-based, human; settings: 5 μg/ml; 0.5-16 hours
# Text: Death receptor pathway is a signal transduction pathway of apoptosis induction. Some of the death factors, such as TNF-α and so on, bind with death receptor (DR) such as TNF family in the membrane to send death signal to cells and induce a series of apoptotic events. A family of aspartic acid-specific proteases, known as caspases, includes caspase-3 and caspase-8 would be activated during apoptotic process. Activated caspase can cleave downstream protein such as Poly(ADP-ribose) polymerase (PARP) to proceed through apoptosis. This experiment investigated the implication of the death receptor pathway in dehydrosulphurenic acid-induced apoptosis through Western blot analysis.
# Dehydrosulphurenic acid in the concentration of 5 μg/ml were used to treat human leukemic cell line U937 for 0.5, 1, 2, 4, and 16 hours; while U937 cells treated with 4 μM anti-cancer drug Camptothecin for 16 hours were served as positive control, and cells without treatment were served as negative control. All the proteins from the cells were extracted with bicinchoninic acid (BCA) assay kit (Pierce, Rockford, Ill.). Equal amounts ([…]) of the protein were aliquoted and separated by electrophoresis on a 10% SDS-PAGE gel at a constant current of 20 mA and 70-100 volts. The proteins on the gel were transferred onto PVDF membranes, blocked with 5% non-fat milk, and incubated respectively with human-specific antibodies including: anti-Bcl-2, anti-Bax, anti-caspase 3, anti-caspase 8, anti-Cyclin B1, anti-p-Chk2 and anti-Actin (all were purchased from Transduction Laboratories, Lexington, Ky., USA) for 3 hours at room temperature. Secondary antibody horseradish peroxidase (purchased from Transduction Laboratories, Lexington, Ky., USA) was then added and the signals were detected under an Enhanced chemiluminescence system (ECS, Amersham Pharmacia, Piscataway, N.J.).
# [3] = test system: human pancreatic cancer cell line BxPc-3; experiment: In vitro survival assay (MTT) for anti-pancreatic cancer effects; assay type: cell-based
# Protocol: The NCI anti-cancer drug screen model was also adopted to test the anti-cancer effect. Dehydrosulphurenic acid was added into the culture media of human pancreatic cancer cell line BxPc-3 to test for tumor cell survival. This survival assay was carried out with the abovementioned MTT assay. American Type Culture Collection (ATCC) purchased BxPc-3 cell line is from pancreatic cancer cells, which was originated from the epithelium of human pancreatic adenocarcinomas.
# (§1) The human pancreatic cancer cell line BxPc-3 was cultivated in DMEM media containing 100 IU/ml penicillin (Invitrogen, Carlsbad, Calif.), 100 IU/ml Streptomycin (Invitrogen, Carlsbad, Calif.), 2 mM glutamin (Invitrogen, Carlsbad, Calif.), 100 IU/ml penicillin (Invitrogen, Carlsbad, Calif.) and 10% fetal calf serum (Atlanta Biologicals, Norcross, Ga.). The proliferated cells were treated with dehydrosulphurenic acid in the concentration of 0 (the control group), 5 and 10 μg/ml (the experimental group), respectively. The cells were incubated at 37° C. in a 5% CO2 incubator for 24-72 hours. MTT was added in a concentration of 500 μg/ml into each well in dark and incubated for 4 hours, followed by the addition of 500 μl of isopropanol to stop the reaction. The plates were read on an ELISA reader at wavelength of 570 nm to determine the survival rates. The results were reported as the average±(plus/minus) SEM (Standard Error in the Mean). For statistical analysis, the t-test were used to compare the difference between each experiment result. P<0.05 was considered statistically significant.
# [4] = test system: human leukemic cell line U937; experiment: Cell cycle analysis by flow cytometer (propidium iodide); assay type: cell-based
# Protocol: (§2) Flow cytometer was used to analyze the cell proliferation effect of dehydrosulphurenic acid toward human leukemic cell line U937 and human pancreatic cancer cell line BxPc-3.
# (§3) Dehydrosulphurenic acid in the concentration of 1.25, 2.5, 5, and 10 μg/ml were used to treat human leukemic cell line U937 and the concentration of 5 and 10 μg/ml were used to treat human pancreatic cancer cell line BxPc-3; cells without addition of dehydrosulphurenic acid were served as the control group. The treated cells were fixed at […] with 70% ethanol for 1 hour and stained for 30 min with propidium iodide solution (propidium iodide, 0.5 mg/ml; RNAse, 0.1 mg/ml) contained in a CycleTEST PLUS DNA reagent kit (Becton Dickinson, Lincoln Park, N.J.). DNA content measurement on the collected 10^4 cells was performed on the FACS Calibur flow cytometer (Becton Dickinson, Calif., USA), and the cell cycle changes were analyzed using a ModFit software (Becton Dickinson).
# [5] = test system: human pancreatic cancer cell line BxPc-3; experiment: as above; assay type: cell-based; settings: 5 and 10 μg/ml; 2 to 3 days
# Protocol: as §2, §3
# [6] = test system: human leukemic cell line U937; experiment: Cell morphology analysis (Liu's staining); assay type: cell-based; settings: treatment for 24-72 h
# Protocol: (§4) The human leukemic cell line U937 and the human pancreatic cancer cell line BxPc-3 were treated respectively with dehydrosulphurenic acid for 24-72 h and stained with Liu's staining solution. The morphological changes of cells with (the experimental group) or without dehydrosulphurenic acid treatment (the control group) were observed under inverted phase-contrast microscope and shown in FIG. 5 and FIG. 6.
# [7] = test system: human pancreatic cancer cell line BxPc-3; experiment: Cell morphology analysis (Liu's staining); assay type: cell-based; settings: 10 μg/ml
# Protocol: as §4
# [8] = test system: human monoblastoid leukemic cell line U937; experiment: In vitro survival assay (MTT) for anti-leukemia effects; assay type: cell-based
# Protocol: The NCI anti-cancer drug screen model was adopted to test the anti-cancer effect of dehydrosulphurenic acid. Dehydrosulphurenic acid was added into the culture media of human monoblastoid leukemic cell line U937 to test for tumor cell survival. This survival assay was carried out with the widely known MTT assay. American Type Culture Collection (ATCC) purchased U937 cell line is from lymphoma cells, which belongs to one of human leukemic cell lines and was classified into monoblasts during hematopoietic differentiation.
# MTT assay is commonly used to determine cell proliferation, percent of viable cells, and cytotoxicity. MTT (3-[4,5-dimethylthiazol-2-yl]2,5-diphenyltetrazolium bromide) is a yellow dye, which can be absorbed by the living cells and be reduced to purplish blue formazan crystals by succinate tetrazolium reductase in mitochondria. Formazan formation can therefore be used to assess and determine the survival rate of cells.
# as §1, with “human leukemic” for “human pancreatic cancer”, “line U937” for “line BxPc-3”, “in RPMI” for “in DMEM”, “containing” for “containing 100 IU/ml penicillin (Invitrogen, Carlsbad, Calif.), 100 IU/ml Streptomycin (Invitrogen, Carlsbad, Calif.), 2 mM glutamin (Invitrogen, Carlsbad, Calif.), 100 IU/ml penicillin (Invitrogen, Carlsbad, Calif.) and 10%”, “serum for 24 hours and maintained in exponential growth condition.” for “serum (Atlanta Biologicals, Norcross, Ga.).”, “group), 1.25, 2.5, 5,” for “group), 5”
# [9] = test system: human leukemic cell line U937; experiment: Nuclear DNA changes, DNA ladder by DNA electrophoresis; assay type: cell-based; settings: 5 μg/ml; 24, 48, and 72 hours
# Protocol: (§5) Besides the abovementioned morphological changes, biochemical changes of the dying cell during apoptosis include chromatin condensation, cell shrinkage and breaking into apoptotic bodies, internucleosomal DNA fragmentation into a multiple DNA ladder during the late stage of apoptosis (can be shown in DNA electrophoresis) and so on. To further define the effects of dehydrosulphurenic acid on U937 and BxPc-3 during apoptotic stages, DNA ladders were determined using DNA electrophoresis at the present experiment.
# (§6) Dehydrosulphurenic acid in the concentration of 5 μg/ml were used to treat human leukemic cell line U937 and human pancreatic cancer cell line BxPc-3 for 24, 48, and 72 hours; while U937 cells treated with 4 μM anti-cancer drug Camptothecin for 24 hours were served as positive control. Then these cells were lyzed with 0.5 ml of lysis buffer (5 mM Tris-borate (TBE), pH8.0; 0.25 ml Nonidet P-40; 1 mM EDTA; 20 μg/ml RNase (Sigma, St. Louis, Mo.)) at 37° C. for 1 hour, followed by treating with 300 μg/ml proteinase K for 1 hour. Total DNAs were extracted and analyzed by 1.5% agarose gel electrophoresis in TBE buffer (5 mM TBE buffer containing 1 μM EDTA, pH 8.0).
# [10] = test system: human pancreatic cancer cell line BxPc-3; experiment: as above; assay type: cell-based; settings: 5 μg/ml; 24, 48, and 72 hours; data not shown
# Protocol: as §5, §6
# [11] = concentration groups of 5 and 10 μg/ml, third day of experiment
smiles,measurement,setting,value
"CC[C@@]1(O)C(=O)OCc2c1cc1n(c2=O)Cc2cc3ccccc3nc2-1 [Camptothecin, reference compound]",decrease of mitochondrial transmembrane potential,[1]; 4 μM camptothecin (positive control),37.1%
"C=C(CC[C@@H](C(=O)O)C1C[C@H](O)[C@@]2(C)C3=CCC4C(C)(C)[C@@H](O)CC[C@]4(C)C3=CC[C@]12C)C(C)C (stereo partly drawn) [dehydrosulphurenic acid, 24-methylenelanosta-7,9(11)-diene-3β,15α-diol-21-oic acid]",Bax expression,[2],not changed
same,Bcl-2 expression,[2],slightly increased
same,cleavage of PARP,[2],no cleavage
same,cyclin B1 expression,[2],up-regulated
same,expression of caspase-3,[2],not altered
same,expression of caspase-8,[2],not altered
same,phosphorylation of Chk2,[2],augmented
same,growth inhibition of BxPc-3 cells,"[3]; 5 and 10 μg/ml, 24-72 hours",significantly inhibit the growth of BxPc-3 cells
same,IC50,"[3]; Homo sapiens, BXPC-3, MTT, data not shown, read-out: IC50 toward BxPc-3 cells",~5 µM
same,inhibitory rate,[3]; [11],more than 60%
same,highest inhibitory rate,[3]; third day of experiment,82.5%
same,decrease of mitochondrial transmembrane potential,[1]; 5 μg/ml,no significant decrease
same,cell cycle arrest,"[4]; 1.25-10 μg/ml, first day of experiment",remarkable G2/M phase arrest
same,sub-G1 population,[4]; higher concentration or second/third day of experiment,accumulating at sub-G1 population
same,percentage of cells with polyploidy,[4]; with increasing concentration,accompanied by increasing concentration
same,cell cycle arrest,[5],remarkable G0/G1 phase arrest
same,percentage of polyploidy cells,[5],not changed
same,sub-G1 population,[5],increase of cell cycle arrest at sub-G1 population
same,morphological change,[6],induced to undergo apoptosis and mitotic catastrophe
same,morphological change,[7]; after 2 days of treatment,typical cell apoptosis was observed
same,morphological change,[7]; treatment for one day,balloon-shaped cells were presented
same,inhibitory rate,"[8]; 1.25, 2.5, 5, and 10 μg/ml (all groups), third day of experiment",more than 60%
same,growth inhibition of U937 cells,"[8]; 1.25, 2.5, 5, and 10 μg/ml, first day of experiment",inhibit the growth of U937 cells effectively
same,IC50,"[8]; Homo sapiens, U-937, MTT, data not shown, read-out: IC50 toward U937 cells",~2 µg/mL
same,inhibitory rate,[8]; [11],more than 95%
same,highest inhibitory rate,[8]; third day of experiment,98.9%
same,DNA ladder,[9],obvious DNA ladders
same,DNA ladder,[10],no DNA ladder

# From US7994158B2, “Method for inhibiting tumor growth with dehydrosulphurenic acid extracted from Antrodia cinnamomea” (priority 2008, dated 2011)
